Measured values as given in PMC8453901, “GLPG1205, a GPR84 Modulator: Safety, Pharmacokinetics, and Pharmacodynamics in Healthy Subjects” (Clinical Pharmacology in Drug Development, 2021).
Entries after “also recorded” stand apart in the source; their conditions may differ.

Assays:
[1] = Study 2 part 1: effect of aging on pharmacokinetics, 50 mg once daily for 14 days; type: in vivo, human; details: for Tmax / Cmax / AUC(0-t) / concentration at 24 h / AUC(0-inf) / half-life: male, human, plasma, oral, 50 mg; for AUC(0-t): read-out: AUC0–24h; for concentration at 24 h: read-out: C24h; for half-life: read-out: t1/2,λz (converted)
Procedure: (§1) During study 2, GLPG1205 50 mg or matching placebo was administered as capsules in the morning 30 minutes after the start of a standard breakfast. Subjects were kept in‐house from the evening of day –1 to ≈26 hours after the first dose (day 2), and from the evening of day 13 until day 15. Administration of the study drug was performed daily at the clinical pharmacology unit. Subjects returned for a follow‐up visit at day 35.
(§2) In part 1, 24 healthy male subjects were matched into 3 cohorts based on body weight: Cohort A comprised 8 subjects aged 65–74 years, inclusive; cohort B comprised 8 subjects aged ≥75 years (1:1 weight matched with cohort A subjects [± 5 kg]); and cohort C comprised 8 subjects aged 18 to 50 years, inclusive (1:1 weight matched with cohort A subjects [± 5 kg]). All cohorts received GLPG1205 50 mg once daily or matching placebo, in a 3:1 ratio, for 14 days. In the open‐label second part of study 2, 8 subjects (cohort D) aged 65 to 74 years, inclusive, were included to characterize the PK profile after a loading dose of GLPG1205 250 mg on day 1 followed by multiple doses of GLPG1205 50 mg once daily from day 2 to day 14.
(§3) In the SAD part of study 1, blood samples (2 mL) for PK assessments were obtained before dosing and at multiple time points on the day of study drug administration (before dosing and 0.5, 1, 2, 4, 6, 8, and 12 hours after dosing) and at 24, 48, and 72 hours after dosing. The predose sample for the next dose level was also used in PK analysis (168 hours after dosing). […] In the MAD part of study 1, blood samples (2 mL) were obtained on days 1, 2, 4, 5, 6, 8, 10, 12, 14, 15, 16, 17, and 18 and at follow‐up (approximately 7 to 10 days after the last dose). These PK blood samples were taken after dosing (1, 2, 4, 6, 8, 12, and 24 hours) on day 1; before dosing on days 4, 6, 8, and 10; and after dosing (1, 2, 4, 6, 8, 12, 24, 72, and 96 hours) on day 14. The following additional PK blood samples were also taken: cohort C, before dosing on day 5; and cohorts D and E, before dosing on day 12. Urine samples were obtained from fractions collected over 6‐ or 12‐hour periods after dosing on days –1, 1, 2, 13, 14, and 15; samples obtained on days –1 and 13 were for cytochrome P450 (CYP) induction analysis only. In study 2, blood samples (2 mL) were obtained on days 1, 2, 5, 7, 10, 14, 15, 17, and 20 and at follow‐up (approximately 21 days after end of study medication administration). Blood samples were taken before dosing and at 1, 2, 4, 6, 8, 12, and 24 hours after drug administration on days 1 and 14 and before dosing on other sampling days.
(§4) GLPG1205 plasma concentrations were determined using a validated liquid chromatography with tandem mass spectrometry method. After a protein precipitation with methanol, a chromatographic separation was performed on a Kinetex C18 column (50×3.0 mm, 2.6 μm; Phenomenex, Torrance, California) set at 40°C by using a Nexera high‐performance liquid chromatography (HPLC) system (Shimadzu, Kyoto, Japan) or an Infinity HPLC system (Agilent Technologies, Diegem, Belgium) in isocratic elution mode. A QTRAP6500, QTRAP4000, or API4000 mass spectrometer (AB Sciex, Nieuwerkerk aan den Ijssel, The Netherlands) equipped with a TurboIonSpray probe operated in the multiple reaction monitoring in positive mode was used for quantification. The calibration curves in plasma were linear over the range of 1 to 1000 ng/mL with 1/x^2 as weighting factor. The limit of quantification of the assay in the plasma samples was set at 1 ng/mL.
(§5) PK calculations were performed using Phoenix WinNonlin 6.2 (Pharsight Corporation, Palo Alto, California). […] AUC0‐inf was calculated from the area under the plasma concentration‐time curve from time 0 until the time corresponding with the last observed quantifiable concentration + Ct/λz, where Ct was the last observed quantifiable concentration and λz the first‐order terminal rate constant. […]

[2] = Study 2 part 2: pharmacokinetics with 250-mg loading dose then 50 mg once daily; type: in vivo, human
Procedure: as §1, §2, §3, §4, §5

CYP2B6 = test system: CYP2B6; parameters: method as in data on file at Galapagos; details: in vitro; ref data on file at Galapagos; cited from earlier work
CYP2C19 = test system: CYP2C19; parameters: method as in data on file at Galapagos, 8, 9; details: 100 mg once daily, healthy male subjects; ref data on file at Galapagos, 8, 9; cited from earlier work
[3] = 50 mg once daily, cohort A 65-74 y, day 14, mean (CV%), N = 4
[4] = 50 mg once daily, cohort A 65-74 y, day 1, mean (CV%)
[5] = 50 mg once daily, cohort A 65-74 y, day 14, mean (CV%)
[6] = 50 mg once daily, cohort B ≥75 y, day 1, mean (CV%)
[7] = 50 mg once daily, cohort B ≥75 y, day 14, mean (CV%)
[8] = 50 mg once daily, cohort C 18-50 y, day 1, mean (CV%)
[9] = 50 mg once daily, cohort C 18-50 y, day 14, mean (CV%)

## O=c1nc(OC[C@@H]2COCCO2)cc2n1CCc1cc(C#CC3CC3)ccc1-2 [GLPG1205, 9‐cyclopropylethynyl‐2‐((S)‐1‐[1,4]dioxan‐2‐ylmethoxy)‐6,7‐dihydropyrimido[6,1‐a]isoquinolin‐4‐one]
[1]; 50 mg once daily for 14 days, 3 age groups
  effect of age on GLPG1205 exposure: Age did not affect GLPG1205 exposure; also recorded: age has no effect on GLPG1205 exposure; also recorded: Age had no effect on the PK
[1]; 50 mg once daily, cohort A 65-74 y, AUC0-24h day 14/day 1 (Table 5A)
  Rac (accumulation ratio): 6.16 (0.74)
[1]; [3]
  AUC0–inf: 338 (26.0) ^N = 4 μg • h/mL
  AUC(0-inf): 338000 ng·h/mL
[1]; 50 mg once daily, cohort B ≥75 y, AUC0-24h day 14/day 1
  Rac (accumulation ratio): 5.77 (1.34)
[1]; 50 mg once daily, cohort C 18-50 y, AUC0-24h day 14/day 1
  Rac (accumulation ratio): 5.02 (1.66)
[1]; 50 mg once daily for 14 days, all 3 age groups
  Tmax: 2 to 3 h
[1]; [4]
  Cmax: 557 ng/mL
  AUC(0-t): 8920 ng·h/mL
  concentration at 24 h: 334 ng/mL
[1]; [5]
  Cmax: 2750 ng/mL
  AUC(0-t): 54200 ng·h/mL
  concentration at 24 h: 2440 ng/mL
  half-life: 71.9 h
[1]; [6]
  Cmax: 440 ng/mL
  AUC(0-t): 6900 ng·h/mL
  concentration at 24 h: 290 ng/mL
[1]; [7]
  Cmax: 1960 ng/mL
  AUC(0-t): 39300 ng·h/mL
  concentration at 24 h: 1820 ng/mL
  half-life: 64.5 h
[1]; 50 mg once daily, cohort B ≥75 y, day 14, mean (CV%), N = 4
  AUC(0-inf): 236000 ng·h/mL
[1]; 50 mg once daily, cohort B ≥75 y, day 14, median (minimum-maximum)
  Tmax: 3 h
[1]; [8]
  Cmax: 476 ng/mL
  AUC(0-t): 7740 ng·h/mL
  concentration at 24 h: 301 ng/mL
[1]; [9]
  Cmax: 1950 ng/mL
  AUC(0-t): 37700 ng·h/mL
  concentration at 24 h: 1590 ng/mL
  half-life: 56 h
[1]; 50 mg once daily, cohort C 18-50 y, day 14, mean (CV%), N = 5
  AUC(0-inf): 194000 ng·h/mL
[2]; 250-mg loading dose + 13 days 50 mg once daily vs 14 days 50 mg once daily
  steady-state exposure with loading dose vs cohort A without: no difference in steady‐state exposure
[2]; 144 hours after the last dose on day 14, all subjects
  quantifiability in plasma after last dose: quantifiable in plasma up to day 20
[2]; after 250-mg loading dose on day 1
  time of maximal mean GLPG1205 concentration: 12 hours after dosing
[2]; after the loading dose of 250 mg
  day by which steady state in plasma concentration was reached: ≤ 2 days
[2]; cohort D 65-74 y, 250-mg loading dose then 50 mg once daily, day 14, mean (CV%)
  Rac: 1.35 (22.8)
[2]; day 14, ratio of cohort D relative to cohort A expressed as a percentage
  Rac point estimate (CI), cohort D vs cohort A: <.0001 22.11 (18.46‐26.48)
[2]; follow-up visit day 35, 504 hours after the last dose
  subjects with GLPG1205 below the limit of quantification: 5 of 8
[2]; human, plasma, oral, cohort D 65-74 y, 250-mg loading dose then 50 mg once daily, day 14, mean (CV%)
  Cmax: 2630 ng/mL
[2]; human, plasma, oral, cohort D 65-74 y, 250-mg loading dose then 50 mg once daily, day 14, mean (CV%), N = 6
  AUC(0-inf): 250000 ng·h/mL
[2]; human, plasma, oral, cohort D 65-74 y, 250-mg loading dose then 50 mg once daily, day 14, mean (CV%), N = 7, read-out: t1/2,λz (converted)
  half-life: 55.4 h
[2]; human, plasma, oral, cohort D 65-74 y, 250-mg loading dose then 50 mg once daily, day 14, mean (CV%), read-out: AUC0–24h
  AUC(0-t): 53700 ng·h/mL
[2]; human, plasma, oral, cohort D 65-74 y, 250-mg loading dose then 50 mg once daily, day 14, mean (CV%), read-out: C24h
  concentration at 24 h: 2360 ng/mL
[2]; human, plasma, oral, day 35, 504 hours after the last dose, subjects in whom still quantifiable, read-out: plasma GLPG1205 level at follow-up
  concentration at 504 h: 2.01 to 21.6 ng/mL
[2]; single 250-mg loading dose
  time to reach steady-state exposure: 1 days
CYP2B6
  inhibition of CYP2B6: weak inhibition
CYP2C19
  effect on exposure of CYP2C19: did not affect the exposure
